Source: US8952025B2, “Multifunctional radical quenchers and their uses” (Arizona Board of Regents, A Body Corporate of the State of …, priority 2010, dated 2015)
Entries after “also recorded” stand apart in the source; their conditions may differ.

How the values were obtained:
[1] = James et al. (2005); cited from earlier work
[2] = system: CEM cells; experiment: Trypan blue cell viability assay, DEM-treated cells; format: cell-based, human; settings: for maintaining cell viability (trypan blue exclusion): overnight incubation, then 5 mM DEM, 3 h
Protocol: Cell viability determined by trypan blue exclusion assay: This technique was used to assess the cytoprotective effects of the invention compounds in cultured cells pharmacologically treated to induce cell death by GSH depletion. DEM was used to deplete cellular GSH and induce oxidative stress. The viability of DEM-treated CEM cells was determined by their ability to exclude the dye trypan blue. Viable cells exclude trypan blue; whereas, non-viable cells take up the dye and stain blue. Briefly, CEM cells were grown in RPMI 1640 medium (GIBCO, Grand island, N.Y., USA) supplemented with 10% fetal calf serum, 2 mM glutamine (HyClone, South Logan, Utah, USA), 1% penicillin-streptomycin mix (Cellgro, Manassan, Va., USA). Cells were seeded at a density of 1×10^6 cells/mL and treated with different concentrations of the invention compounds. Cells were incubated at 37° C. in a humidified atmosphere of 5% CO2 in air for three hours with 5 mM DEM. Cell viability was determined by staining cells with 0.4% trypan blue using a hemacytometer. At least 500 cells were counted for each experimental group. At the time of assay, >95% of DEM-treated cells were trypan blue positive; whereas, in non-DEM treated control cell cultures >95% cells were viable. Cell viability was expressed as the percentage of control. Data are expressed as means±S.E.M (n=3).

[3] = C11-BODIPY581/591 oxidation lipid peroxidation assay in liposomes; settings: 10 mM AAPH, phospholipid liposomes, phosphate buffer, 40° C.
Protocol: To overcome the problem of spectral overlap using cis-parinaric acid, a fluorescence assay for lipid peroxidation using a lipophilic probe belonging to the BODIPY class of fluorescent dyes was used. C11-BODIPY^581/591 (4,4-difluoro-5(4-phenyl-1,3-butadienyl)-4-bora-3a,4a-diaza-s-indacene-3-propionic acid) fluorescence shifts from red to green upon oxidation. C11-BODIPY^581/591 (Molecular Probes, Eugene, Oreg., USA) stock solution concentrations were determined by measuring the absorption of C11-BODIPY^581/591 at 582 nm using a molar extinction coefficient of 140,000 mol^−1 cm^−1(R. P. Haugland, (1999) Handbook of Fluorescent Probes and Research Chemicals, Molecular Probes, Inc., Eugene, Oreg.). The lipid peroxidation inducer 2,2′-Azobis (2-amidino-propane dihydrochloride) (AAPH) and the antioxidant compound α-tocopherol were obtained from Sigma (St. Louis, Mo., USA). Phospholipid bilayers were prepared from 1-stearoyl-2-oleoyl-phosphatidylcholine (SOPC) and 1,2-dilinoleoyl-phosphatidylcholine (DLPC) and were purchased from Avanti® polar lipids, INC (Alabaster, Ala., USA).
Phosphotidylcholine (PC) liposomes were prepared as described before (Guey-Shuang et al. (1982) Lipids. 17, 403-413). Briefly, DLPC (25 mg) and SOPC (25 mg) were dissolved in chloroform and the solvent was removed by nitrogen evaporation (˜2 hours to give a thin film of PC in a round bottom flask. The lipid film was hydrated with 50 mL of 10 mM Tris-HCl (pH 7.4), 100 mM KCl, shaken and sonicated for 15 seconds. The liposomes obtained were filtered several times through 0.2 μM membrane filter.
C11 BODIPY^581/591 was incorporated into liposomes and oxidized by peroxyl radicals derived from the decomposition of AAPH in presence and absence of the compounds. […] Liposomes were pre-incubated for 10 min with 200 nM C11 BODIPY^581/591 to allow their incorporation into the lipid phase of the liposomes. After the addition of AAPH (10 mM) the decay of red fluorescence was followed at λ exc=570 nm, λ em=600 nm. Relative fluorescence units were normalized to 100% intensity. Results obtained were verified by repeating experiments N=3 independent experiments.

[4] = system: cytochrome c; experiment: Cytochrome c reduction assay; format: biochemical; settings: 100 μM compound, 10 μM cytochrome c, absorbance 550 nm
Protocol: The rate of cytochrome c (10 μM) reduction was measured by monitoring the change in absorbance at 550 nm. Briefly the reaction was initiated by addition of 100 μM of the invention compounds to a mixture containing 50 mM phosphate buffer, 0.1 mM EDTA, pH 7.8, and 10 μM cytochrome c (Sigma, St. Louis, Mo. USA). For cytochrome c reduction by superoxide, xanthine oxidase (0.01 IU/mL) (Sigma, St. Louis, Mo. USA) was used in presence of xanthine (50 μM).

[5] = system: CEM cells; experiment: Reactive oxygen species (ROS) assay, DCFH-DA, DEM-treated cells; format: cell-based, human
Source text: Cellular ROS production can be monitored using 2′,7′-dichlorodihydrofluorescein diacetate (DCFH-DA) (LeBel et al. (1992) Chem. Res. Toxicol. 5, 227-231) (Molecular Probes, Eugene, Oreg., USA), a membrane permeable and oxidant-sensitive fluorescent dye. DCFH-DA is a non-fluorescent derivative of fluorescein that emits fluorescence after being oxidized by hydrogen peroxide and other ROS. The emitted fluorescence is directly proportional to the concentration of hydrogen peroxide. DCFH-DA is nonionic and nonpolar and is easily taken up by cells. Once inside the cell, DCFH-DA is hydrolyzed by cellular esterases to non-fluorescent DCFH which traps the dye in the cell. In the presence of ROS including hydrogen peroxide, DCFH is oxidized to the highly fluorescent compound dichlorofluorescein (DCF). The intracellular DCF fluorescence is used as an index of cellular ROS production.
Cellular oxidative stress was induced by pharmacological depletion of glutathione (GSH) using the chemical diethylmaleate (DEM). ROS production was assessed by monitoring DCF fluorescence. Leukemic CEM cells (ATCC®, catalogue number CRL-2264) were cultured in RPMI (GIBCO, Grand island, N.Y., USA) with 10% FCS, 2 mM glutamine (HyClone, South Logan, Utah, USA) and 1% penicillin-streptomycin mix antibiotics (Cellgro, Manassan, Va., USA) supplements. Cells were maintained in the log phase at a concentration of between 1×10^5 and 1×10^6 cells/mL. CEM cells (1×10^6 cell/mL) were plated (1 mL) in twelve well plate and treated with the invention compounds (final concentration 1 and 5 μM), and incubated for two hours at 37° C., 5% CO2. The compounds tested were prepared by first making stock solutions (2.5 mM) in dimethylsulfoxide (DMSO). Cells were treated with 5 mM DEM for 30 minutes and collected by centrifugation at 300×g for 3 min and then washed twice with Hanks' Balanced Salt Solution (HSSB) buffer (Sigma, St. Louis, Mo. USA). Cells were resuspended in HSSB buffer+10 mM glucose and incubated at 37° C. in the dark for 20 min with 10 μM DCFH-DA. Cells were collected by centrifugation at 300×g for 3 min and then washed twice with HSSB buffer. The samples were analyzed immediately by flow cytometry (Becton-Dickinson FACS Caliber), (Cell Quest software, BD Biosciences) using 488 nm excitation laser and FL1-H channel 538 nm emission filter. In each analysis, 10,000 events were recorded after cell debris were electronically gated out. Results obtained were verified by repeating experiments N=3 independent experiments. Authentic hydrogen peroxide was used as a positive control.

[6] = system: CEM leukemia cells; experiment: Mitochondrial membrane potential (Δψm) assay, TMRM, FACS; format: cell-based, human; settings: pretreatment 0.5, 1 or 2.5 μM overnight, DEM
Protocol: Measurement of Mitochondrial Membrane Potential (Δψm)(FACS). For the determination of Δψm, CEM leukemia cells were pre-treated with or without the test compounds. The cells were treated with 5 mM DEM for 120 minutes, collected by centrifugation at 300×g for 3 minutes and then washed twice with phosphate buffered saline. The cells were re-suspended in HSSB buffer and incubated at 37° C. in the dark for 15 minutes with 250 nM TMRM (a cationic dye which accumulates within mitochondria in accordance with the Δψm Nernst potential). Cells were collected by centrifugation at 300×g for 3 minutes and then washed twice with phosphate buffered saline. The samples were analyzed immediately by flow cytometry using 488 nm excitation laser and the FL2-H channel. The results obtained were verified in three independent experiments. The protonophore FCCP (30 μM) was used to dissipate the chemiosmotic proton gradient (ΔμH^+) and served as a control for loss of Δψm. In each analysis, 10,000 events were recorded.

[7] = system: CEM leukemia cells; experiment: C11-BODIPY581/591 oxidation in cell culture (lipid peroxidation); format: cell-based, human; settings: 2.5 or 1 μM, pretreatment 4 or 24 hours, glutathione depleted
Protocol: Lipid peroxidation in CEM leukemia cells was detected by utilizing the oxidant-sensitive lipophilic probe C11 BODIPY^581/591. Briefly, CEM cells (5×10^5 cell/mL) were treated with the test compounds at final concentrations of 1 and 2.5 μM, and incubated at 37° C. for 4 or 24 h in a humidified atmosphere containing 5% CO2 in air. Cells were treated with 500 nM C11 BODIPY^581/591 in phenol red-free RPMI-1640 media and incubated at 37° C. in the dark for 30 minutes. The cells were washed twice with phosphate buffered saline and oxidative stress was induced with 5 mM DEM in phenol red-free RPMI-1640 media for 90 minutes. Treated cells were collected by centrifugation at 300×g for 3 minutes and then washed twice with phosphate buffered saline. Cells were resuspended in 250 μL of phosphate buffered saline and were analyzed by FACS (FACS Calibur flow cytometer, Becton Dickinson) to monitor the change in intensity of the C11 BODIPY^581/591-green (oxidized) fluorescence signal.

[8] = system: Human CEM leukemia cells; experiment: Live/Dead Viability/Cytotoxicity flow cytometry assay; format: cell-based; settings: overnight incubation, then DEM 3 hours
Protocol: Cell viability and cytotoxicity were determined by simultaneous staining live and dead cells using a two-color fluorescence assay, the Live/Dead® Viability/Cytotoxicity Kit (Molecular Probes). This assay is used to measure two recognized parameters of cell viability, intracellular esterase activity and plasma integrity. The membrane-impermeant DNA dye ethidium homodimer-1 (EthD-1) was used to identify dead cells whose plasma membrane integrity was disrupted. The membrane-permeant dye calcein-AM was used to label live cells. It penetrates into the cells where it is metabolized by cytoplasmic esterases and becomes a fluorescent but membrane-impermeant probe which is retained in viable cells. Human CEM leukemia cells were incubated overnight in RPMI medium (control) and in the presence of test compound and then treated with DEM for 3 hours. Cells were stained with 0.2 μM calcein-AM and 0.4 μM EthD-1. After 15 minutes, flow cytometry analysis was carried out using excitation at 488 nm. The green-fluorescent (539 nm) FL1-H channel, live-cell population appears in the lower right quadrant and the red-fluorescent (585 nm) FL2-H channel dead-cell population appears in the upper left quadrant (FIG. 11). In each analysis, 10,000 events were recorded. Results obtained were verified in three independent experiments.

SMILES	calculated octanol-water partition coefficient [1]	EC50 ([2]; Homo sapiens, CCRF-CEM, CEM cells, pre-treatment 2 h, diethylmaleate 3 h, trypan blue exclusion, read-out: EC50 (effective concentration that prevents 50% of cell death)) [nM]	maintaining cell viability (trypan blue exclusion) [2]	quenching of lipid peroxidation (retention of C11-BODIPY581/591 fluorescence) [3]	reduction of cytochrome c [4]	protection against ROS production (DCF fluorescence) ([5]; compound 1 μM, 5 mM DEM)	protection against ROS production (DCF fluorescence) ([5]; compound 5 μM, 5 mM DEM)	suppression of ROS production (DCF fluorescence) ([5]; pretreatment 0.5, 1 or 5 μM, DEM)	maintaining mitochondrial membrane potential Δψm [6]	quenching of lipid peroxidation (retention of C11-BODIPY581/591 fluorescence) ([3]; listed as 1,4,6-trimethyl-2,3-dihydro-1H-pyrrolo[2,3-b]pyridin-5-ol)	quenching of lipid peroxidation (retention of C11-BODIPY581/591 fluorescence) ([3]; listed as Compound C redox core)	protection against ROS production (DCF fluorescence) ([5]; 5 μM, pretreatment 4 or 24 h)	protection against lipid peroxidation in cells (C11-BODIPY581/591 green fluorescence) [7]	maintaining cell viability (Live/Dead kit, flow cytometry) [8]
COC1=C(OC)C(=O)C(C/C=C(\C)CC/C=C(\C)CC/C=C(\C)CC/C=C(\C)CC/C=C(\C)CC/C=C(\C)CC/C=C(\C)CC/C=C(\C)CC/C=C(\C)CCC=C(C)C)=C(C)C1=O [coenzyme Q10]	> 10^20													
Cc1cc(N(C)C)nc(CCCCCCCCCCO)c1O [Compound B, 2-N,N-dimethylamino-5-hydroxy-4-methyl-6-(10-hydroxydecyl)-pyridine]		300 ± 22	quite effective in maintaining cell viability following DEM treatment; also recorded: superior to idebenone in maintaining the viability of DEM-treated cells	about as effective as C	clearly reduce cytochrome c	less effective at this concentration	significantly more effective in blocking diethylmaleate-induced ROS production compared to idebenone or its reduced form (Idebenol); also recorded: protected the cells	more effective than idebenone at all tested concentrations; also recorded: more effective than idebenone in suppressing ROS in a dose-dependent fashion	clearly more effective in maintaining mitochondrial membrane potential; also recorded: very favorable properties					
Cc1nc2c(c(C)c1O)CCN2C [compound C redox core, 1,4,6-trimethyl-2,3-dihydro-1H-pyrrolo[2,3-b]pyridin-5-ol, reference compound]			quite ineffective							much less effective in the same assay system	less effective than compound C itself	no protection	no protection	quite ineffective
